# Measured values taken from patent US20230212549A1, “COMPOUNDS COMPRISING A […] LIGAND AND USE THEREOF” (priority 2021, published 2023).
# Numbered stars: 1 amine (or outer) side, 2 acyl side, 3 side chain; on linkers, the order of the positions; unused ones are H or OH. Bridge positions count the residues as written; N and C are the ends. Square brackets hold non-standard residues; d marks the D form. Peptide text beside a SMILES is read from it. * marks the point of attachment. ξ: configuration not given here. X1 = NCCNCC(CNCCN)C(=O)N1CCN(CC(=O)NCCCOCCOCCOCCCN*)CC1; Pyridine(3,5-bisCH2) = c1ncc(C[*:2])cc1C[*:1]; mXylylene = c1cc(C[*:1])cc(C[*:2])c1; PEG6 = NCCOCCOCCOCCOCCOCCOCCC(=O)O; Suc = O=C(CCC(=O)[*:2])[*:1]; Nle = CCCC[C@H](N)C(=O)O; X2 = NCCNCC(CNCCN)C(=O)*; ξC = NC(CS)C(=O)O; βAla = NCCC(=O)O
# How the values were obtained:
# [1] = molecular target: T1, FAP-expressing human WI-38 fibroblasts (Homo sapiens, UniProt Q12884); assay: Competitive FACS binding assay; conditions: for pIC50 Category (FACS): competition with 3 nM Cy5-labeled compound, 4° C., 1 hour, WI-38 fibroblasts
# T1 construct: FAP-expressing human WI-38 fibroblasts (ECACC) were cultured in EMEM; host or cells: WI-38 human fibroblasts
# Protocol: Cells were analyzed in an Attune NxT flow cytometer. […] […].
# Cells were analyzed in an Attune NxT flow cytometer. […]
# Human recombinant FAP [2] = molecular target: T2, Human recombinant FAP (Homo sapiens, UniProt Q12884); assay: Surface plasmon resonance (Biacore) assay; assay type: binding; conditions: for pKD Category: Biacore, SCK mode, 25° C.
# [3] = Radiochemical purity by HPLC of ^99mTc-labeled compounds; assay type: physicochemical; conditions: 99Tc-labeled compounds
# Protocol: 100-500 MBq of ^99mTcO4 (in saline) were mixed with 11 μl of 0.5 M phosphate buffer pH 11.5-12.0 and 1.1 μl of 0.1 M trisodium citrate per 100 μl radionuclide solution. […] The mixture was incubated for 30 min at 25-50′° C. At the end of the incubation time, the mixture was neutralized with 3.0 μl 1 M HCl per 10 μl phosphate buffer and TWEEN-20 was added at a final concentration of 0.100.
# HEK-FAP tumor = conditions: for uptake in healthy tissues (biodistribution): ^99mTc-labelled, 1-6 h post injection, compared to 3BP-4219 and 3BP-4221; for uptake BPS 1 h / uptake BPS 3 h / uptake BPS 6 h / uptake Tumor 1 h / uptake Tumor 3 h / uptake Tumor 6 h / uptake Kidneys 1 h / uptake Kidneys 3 h / uptake Kidneys 6 h: ^99mTc-labeled, SPECT/CT; for uptake BPS 1 h / uptake BPS 3 h / uptake BPS 6 h: BPS (blood pool surrogate); for uptake BPS 1 h / uptake Tumor 1 h / uptake Kidneys 1 h: 1 h post tracer injection; for uptake BPS 3 h / uptake Tumor 3 h / uptake Kidneys 3 h: 3 h post tracer injection; for uptake BPS 6 h / uptake Tumor 6 h / uptake Kidneys 6 h: 6 h post tracer injection; for uptake Tumor 1 h / uptake Tumor 3 h / uptake Tumor 6 h: HEK-FAP tumor
# in vivo = conditions: swiss nude, mouse, iv
# Human recombinant FAP [4] = molecular target: T2, Human recombinant FAP; assay: FRET-based FAP protease activity assay; assay type: biochemical; design: purchased R&D systems 3715-SE; conditions: for IC50: pIC50 Category (activity), Recombinant human FAP; for pIC50 Category (activity): FRET-peptide substrate, 37° C.
# T2 sequence (Q12884 whole entry): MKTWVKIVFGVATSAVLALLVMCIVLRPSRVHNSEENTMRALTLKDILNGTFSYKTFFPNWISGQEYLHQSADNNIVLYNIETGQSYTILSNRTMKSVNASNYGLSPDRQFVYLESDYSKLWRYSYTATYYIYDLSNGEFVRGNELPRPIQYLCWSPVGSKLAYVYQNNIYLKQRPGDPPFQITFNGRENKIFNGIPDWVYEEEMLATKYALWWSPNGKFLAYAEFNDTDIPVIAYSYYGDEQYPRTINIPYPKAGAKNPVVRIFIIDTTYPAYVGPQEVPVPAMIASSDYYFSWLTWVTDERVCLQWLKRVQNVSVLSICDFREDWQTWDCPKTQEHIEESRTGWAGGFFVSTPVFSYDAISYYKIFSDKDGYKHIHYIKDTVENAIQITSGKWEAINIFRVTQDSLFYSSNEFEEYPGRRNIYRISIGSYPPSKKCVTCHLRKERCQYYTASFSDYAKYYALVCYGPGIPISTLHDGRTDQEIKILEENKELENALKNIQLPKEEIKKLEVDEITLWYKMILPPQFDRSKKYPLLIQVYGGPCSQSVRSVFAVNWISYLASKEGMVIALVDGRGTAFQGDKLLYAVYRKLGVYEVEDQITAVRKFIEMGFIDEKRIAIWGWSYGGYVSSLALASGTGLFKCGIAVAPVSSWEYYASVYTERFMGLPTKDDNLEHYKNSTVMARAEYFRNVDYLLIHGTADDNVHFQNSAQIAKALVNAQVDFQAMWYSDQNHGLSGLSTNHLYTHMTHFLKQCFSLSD
# T1 sequence (Q12884 whole entry): as above
Molecule,IC50 [1] [nM],Kd (Human recombinant FAP [2]) [nM],HPLC Area % appr. 4 h post end of synthesis [3] [%],HPLC Area % at end of synthesis [3] [%],tissue uptake at 1 h (in vivo; blood pool surrogate (BPS)) [%ID/g],tissue uptake at 3 h (in vivo; blood pool surrogate (BPS)) [%ID/g],tissue uptake at 6 h (in vivo; blood pool surrogate (BPS)) [%ID/g],tissue uptake at 1 h (in vivo; kidneys) [%ID/g],tissue uptake at 3 h (in vivo; kidneys) [%ID/g],tissue uptake at 6 h (in vivo; kidneys) [%ID/g],tissue uptake at 1 h (in vivo; tumor) [%ID/g],tissue uptake at 3 h (in vivo; tumor) [%ID/g],tissue uptake at 6 h (in vivo; tumor) [%ID/g],IC50 (Human recombinant FAP [4]) [nM],further results
"CCCC[C@H](NC(=O)CCC(=O)NCCCOCCOCCOCCCNC(=O)CN1CCN(C(=O)C(CNCCN)CNCCN)CC1)C(=O)N[C@H]1CSCc2cccc(c2)CSCC(C(=O)O)NC(=O)[C@H](Cc2ccccc2)NC(=O)[C@H](CCC(N)=O)NC(=O)[C@H]([C@@H](C)O)NC(=O)[C@@H]2CCCN2C(=O)[C@@H]2CCCN2C1=O (stereo partly drawn) [3BP-4541, N4Ac-PPAc-Ttds-Nle-[Cys(3MeBn)-Pro-Pro-Thr-Gln-Phe-Cys]-OH]",10 to 79.4,10 to 79.4,89.7,95.8,0.48,0.2,0.06,4.02,2.41,1.01,8.81,9.76,7.48,10 to 79.4,uptake in healthy tissues (biodistribution) (HEK-FAP tumor): decreased uptake in healthy tissues over time
"CCCC[C@H](NC(=O)CCOCCOCCOCCOCCOCCOCCNC(=O)C(CNCCN)CNCCN)C(=O)N[C@H]1CSCc2cncc(c2)CSCC(C(=O)O)NC(=O)[C@H](Cc2ccccc2)NC(=O)[C@H](CCC(=O)O)NC(=O)[C@H]([C@@H](C)O)NC(=O)[C@@H]2CCCN2C(=O)[C@@H]2CCCN2C1=O (stereo partly drawn) [3BP-4773, N4Ac-PEG6-Nle-[Cys(3Lut)-Pro-Pro-Thr-Glu-Phe-Cys]-OH] ({X2-PEG6}-[Nle]CPPTEF[ξC]-OH; linker 2-8 via Pyridine(3,5-bisCH2))",10 to 79.4,10 to 79.4,–,95.8,0.25,0.09,0.06,6.64,4.71,3.12,6.19,6.19,5.42,10 to 79.4,–
"CCCC[C@H](NC(=O)CCC(=O)NCCCOCCOCCOCCCNC(=O)CN1CCN(C(=O)C(CNCCN)CNCCN)CC1)C(=O)N[C@H]1CSCc2cncc(c2)CSCC(C(=O)O)NC(=O)[C@H](Cc2ccccc2)NC(=O)[C@H](CCC(=O)O)NC(=O)[C@H]([C@@H](C)O)NC(=O)[C@@H]2CCCN2C(=O)[C@@H]2CCCN2C1=O (stereo partly drawn) [3BP-4775, N4Ac-PPAc-Ttds-Nle-[Cys(3Lut)-Pro-Pro-Thr-Glu-Phe-Cys]-OH] ({X1-Suc}-[Nle]CPPTEF[ξC]-OH; linker 2-8 via Pyridine(3,5-bisCH2))",10 to 79.4,10 to 79.4,88.1,86.4,0.21,0.18,0.04,8.98,6.31,4.28,7.88,6.28,4.55,10 to 79.4,–
"CCCC[C@H](NC(=O)CCC(=O)NCCCOCCOCCOCCCNC(=O)CN1CCN(C(=O)C(CNCCN)CNCCN)CC1)C(=O)N[C@H]1CSCc2cccc(c2)CSC[C@@H](C(=O)NCCC(=O)O)NC(=O)[C@H](Cc2ccccc2)NC(=O)[C@H](CCC(=O)O)NC(=O)[C@H]([C@@H](C)O)NC(=O)[C@@H]2CCCN2C(=O)[C@@H]2CCCN2C1=O [3BP-4784, N4Ac-PPAc-Ttds-Nle-[Cys(3MeBn)-Pro-Pro-Thr-Glu-Phe-Cys]-Bal-OH] ({X1-Suc}-[Nle]CPPTEFC[βAla]-OH; linker 2-8 via mXylylene)",< 10,< 10,94.9,96.6,0.9,0.63,0.38,1.61,1.23,1.01,7.65,7.43,7.44,< 10,–
"CCCC[C@H](NC(=O)CCC(=O)NCCCOCCOCCOCCCNC(=O)CN1CCN(C(=O)C(CNCCN)CNCCN)CC1)C(=O)N[C@H]1CSCc2cccc(c2)CSC[C@@H](C(=O)NCCC(=O)O)NC(=O)[C@H](Cc2ccccc2)NC(=O)[C@H](CCC(N)=O)NC(=O)[C@H]([C@@H](C)O)NC(=O)[C@@H]2CCCN2C(=O)[C@@H]2CCCN2C1=O [3BP-4960, N4Ac-PPAc-Ttds-Nle-[Cys(3MeBn)-Pro-Pro-Thr-Gln-Phe-Cys]-Bal-OH]",< 10,< 10,92.3,95.2,0.74,0.47,0.17,1.96,1.21,1.21,10.5,12.8,12.1,< 10,–
"CCCC[C@H](NC(=O)CCC(=O)NCCCOCCOCCOCCCNC(=O)CN1CCN(C(=O)C(CNCCN)CNCCN)CC1)C(=O)N[C@H]1CSCc2cncc(c2)CSC[C@@H](C(=O)NCCC(=O)O)NC(=O)[C@H](Cc2ccccc2)NC(=O)[C@H](CCC(N)=O)NC(=O)[C@H]([C@@H](C)O)NC(=O)[C@@H]2CCCN2C(=O)[C@@H]2CCCN2C1=O [3BP-4961, N4Ac-PPAc-Ttds-Nle-[Cys(3Lut)-Pro-Pro-Thr-Gln-Phe-Cys]-Bal-OH]",< 10,< 10,–,98.0,0.47,0.31,0.11,2.36,1.12,0.77,10.5,11.4,12.3,< 10,uptake in healthy tissues (biodistribution) (HEK-FAP tumor): decreased uptake in healthy tissues over time
N4Ac-PEG6-Nle-[Cys-(3MeBn)-Pro-Pro-Thr-Glu-Phe-Cys]-OH [3BP-4221],–,–,–,99.0,–,–,–,–,–,–,–,–,–,–,pIC50 Category (FACS) [1]: B (category B for pIC50 values between 7.1 and 8.0); pKD Category (Human recombinant FAP [2]): A (Category A stands for pKD values >8.0); HPLC Area % appr. 4 h post end of synthesis ([3]; (5.5 h)): 97.4%; uptake BPS 1 h (HEK-FAP tumor): 0.54 % ID/g; uptake BPS 3 h (HEK-FAP tumor): 0.27 % ID/g; uptake BPS 6 h (HEK-FAP tumor): 0.16 % ID/g; uptake Tumor 1 h (HEK-FAP tumor): 8.51 % ID/g; uptake Tumor 3 h (HEK-FAP tumor): 8.32 % ID/g; uptake Tumor 6 h (HEK-FAP tumor): 7.97 % ID/g; uptake Kidneys 1 h (HEK-FAP tumor): 4.74 % ID/g; uptake Kidneys 3 h (HEK-FAP tumor): 3.73 % ID/g; uptake Kidneys 6 h (HEK-FAP tumor): 2.56 % ID/g; pIC50 Category (activity) (Human recombinant FAP [4]): B (category B for pIC50 values between 7.1 and 8.0)
N4Ac-Ttds-Nle-[Cys-(3MeBn)-Pro-Pro-Thr-Gln-Phe-Cys]-OH [3BP-4219],–,–,–,94.8,–,–,–,–,–,–,–,–,–,–,pIC50 Category (FACS) [1]: B (category B for pIC50 values between 7.1 and 8.0); pKD Category (Human recombinant FAP [2]): A (Category A stands for pKD values >8.0); HPLC Area % appr. 4 h post end of synthesis ([3]; (5.5 h)): 93.8%; uptake BPS 1 h (HEK-FAP tumor): 0.21 % ID/g; uptake BPS 3 h (HEK-FAP tumor): 0.09 % ID/g; uptake BPS 6 h (HEK-FAP tumor): 0.07 % ID/g; uptake Tumor 1 h (HEK-FAP tumor): 6.80 % ID/g; uptake Tumor 3 h (HEK-FAP tumor): 7.62 % ID/g; uptake Tumor 6 h (HEK-FAP tumor): 4.52 % ID/g; uptake Kidneys 1 h (HEK-FAP tumor): 1.85 % ID/g; uptake Kidneys 3 h (HEK-FAP tumor): 1.84 % ID/g; uptake Kidneys 6 h (HEK-FAP tumor): 0.55 % ID/g; pIC50 Category (activity) (Human recombinant FAP [4]): A (pIC50 category A stands for pIC50 values >8.0)
